Reference: PMC4467398, “Preclinical antitumor activity of ST7612AA1: a new oral thiol-based histone deacetylase (HDAC) inhibitor” (Oncotarget, 2014)

Tested on: DOHH2 and TMD8 DLBCL cells
Experiment: Gene expression profiling (HumanHT-12 v4 BeadChip, limma), ST7612AA1 300 nM 8 hrs vs DMSO
Format: cell-based, human

## CC(=O)SCCCCC[C@H](NC(=O)[C@H]1CCC(=O)N1)C(=O)Nc1ccccc1 [ST7612AA1]
300 nM 8 hrs
  AveExpr.ST7612 NOSIP (probe ILMN_1759436): 7.06E-01
  AveExpr.ST7612 NPC2 (probe ILMN_1716678): 8.44E-01
  AveExpr.ST7612 NPL (probe ILMN_1782070): 7.76E-01
  AveExpr.ST7612 NPL (probe ILMN_2149494): 8.88E-01
  AveExpr.ST7612 NQO2 (probe ILMN_1712918): 8.69E-01
  AveExpr.ST7612 NUB1 (probe ILMN_1665291): 7.20E-01
  AveExpr.ST7612 NUMB (probe ILMN_2331266): 7.27E-01
  AveExpr.ST7612 NXF1 (probe ILMN_1705783): 8.80E-01
  AveExpr.ST7612 NXF1 (probe ILMN_2358652): 7.18E-01
  AveExpr.ST7612 P704P (probe ILMN_1793950): 6.85E-01
  AveExpr.ST7612 PAQR8 (probe ILMN_1694589): 7.20E-01
  AveExpr.ST7612 PCYOX1 (probe ILMN_1679725): 7.89E-01
  AveExpr.ST7612 PDXK (probe ILMN_1672504): 8.94E-01
  AveExpr.ST7612 PECI (probe ILMN_2384536): 8.25E-01
  AveExpr.ST7612 PEX16 (probe ILMN_1745655): 7.84E-01
  AveExpr.ST7612 PIM2 (probe ILMN_1748283): 7.43E-01
  AveExpr.ST7612 PKIA (probe ILMN_2337974): 7.37E-01
  AveExpr.ST7612 PLD3 (probe ILMN_1666976): 8.81E-01
  AveExpr.ST7612 PMAIP1 (probe ILMN_2098446): 8.50E-01
  AveExpr.ST7612 PNKD (probe ILMN_1774604): 7.25E-01
  AveExpr.ST7612 PRDX2 (probe ILMN_1767766): 8.35E-01
  AveExpr.ST7612 PRDX2 (probe ILMN_2382829): 7.41E-01
  AveExpr.ST7612 PTGER4 (probe ILMN_1795930): 9.03E-01
  AveExpr.ST7612 PTTG1 (probe ILMN_1753196): 6.92E-01
  AveExpr.ST7612 RAB8B (probe ILMN_2173004): 8.71E-01
  AveExpr.ST7612 RAB24 (probe ILMN_2379718): 7.77E-01
  AveExpr.ST7612 RABGAP1 (probe ILMN_2061950): 6.86E-01
  AveExpr.ST7612 RAPGEF2 (probe ILMN_3247261): 8.54E-01
  AveExpr.ST7612 RASAL1 (probe ILMN_1793517): 7.10E-01
  AveExpr.ST7612 RASD2 (probe ILMN_2170209): 7.75E-01
  AveExpr.ST7612 REEP2 (probe ILMN_1666057): 6.85E-01
  AveExpr.ST7612 RFC1 (probe ILMN_2217935): 7.23E-01
  AveExpr.ST7612 RHBDD2 (probe ILMN_1809437): 7.80E-01
  AveExpr.ST7612 RHBDD2 (probe ILMN_2406410): 8.04E-01
  AveExpr.ST7612 RHOBTB3 (probe ILMN_1744949): 8.25E-01
  AveExpr.ST7612 RHOC (probe ILMN_1673305): 9.02E-01
  AveExpr.ST7612 RNASE4 (probe ILMN_1776602): 7.33E-01
  AveExpr.ST7612 RND2 (probe ILMN_1736533): 7.06E-01
  AveExpr.ST7612 RNF24 (probe ILMN_1717809): 7.24E-01
  AveExpr.ST7612 RTN2 (probe ILMN_1749115): 8.60E-01
  AveExpr.ST7612 RTN3 (probe ILMN_2363065): 7.08E-01
  AveExpr.ST7612 SBK1 (probe ILMN_1728298): 8.80E-01
  AveExpr.ST7612 SCARNA11 (probe ILMN_3236010): 6.95E-01
  AveExpr.ST7612 SCARNA13 (probe ILMN_3235325): 7.18E-01
  AveExpr.ST7612 SCARNA14 (probe ILMN_3247636): 7.31E-01
  AveExpr.ST7612 SDCBP (probe ILMN_2363586): 8.86E-01
  AveExpr.ST7612 SDCBP (probe ILMN_2363591): 8.22E-01
  AveExpr.ST7612 SDHAP2 (probe ILMN_3248781): 7.07E-01
  AveExpr.ST7612 SEMA4D (probe ILMN_1687533): 7.86E-01
  AveExpr.ST7612 SEMA4F (probe ILMN_1805007): 7.51E-01
  AveExpr.ST7612 SERPINB9 (probe ILMN_1742052): 7.55E-01
  AveExpr.ST7612 SERPINI1 (probe ILMN_1814333): 7.79E-01
  AveExpr.ST7612 SGK (probe ILMN_1702487): 8.82E-01
  AveExpr.ST7612 SH3GLB2 (probe ILMN_2158336): 6.85E-01
  AveExpr.ST7612 SLC23A2 (probe ILMN_1746578): 7.82E-01
  AveExpr.ST7612 SLC25A4 (probe ILMN_1681670): 8.53E-01
  AveExpr.ST7612 SLC25A4 (probe ILMN_2211780): 7.98E-01
  AveExpr.ST7612 SLC25A23 (probe ILMN_1679949): 7.04E-01
  AveExpr.ST7612 SLC44A2 (probe ILMN_1771987): 7.92E-01
  AveExpr.ST7612 SLC45A3 (probe ILMN_1726114): 7.11E-01
  AveExpr.ST7612 SLFN11 (probe ILMN_1752520): 7.62E-01
  AveExpr.ST7612 SNAP23 (probe ILMN_1687519): 8.74E-01
  AveExpr.ST7612 SNORD31 (probe ILMN_2072391): 7.85E-01
  AveExpr.ST7612 SORT1 (probe ILMN_1707077): 8.42E-01
  AveExpr.ST7612 SPAG9 (probe ILMN_2263718): 7.33E-01
  AveExpr.ST7612 SPINT2 (probe ILMN_1800739): 8.11E-01
  AveExpr.ST7612 SREBF1 (probe ILMN_1663035): 7.22E-01
  AveExpr.ST7612 SRGN (probe ILMN_1760347): 7.62E-01
  AveExpr.ST7612 SRGN (probe ILMN_2169152): 7.60E-01
  AveExpr.ST7612 STARD10 (probe ILMN_1717052): 8.01E-01
  AveExpr.ST7612 STK17B (probe ILMN_1798543): 7.91E-01
  AveExpr.ST7612 STMN3 (probe ILMN_3244117): 9.01E-01
  AveExpr.ST7612 STX3 (probe ILMN_1659544): 8.71E-01
  AveExpr.ST7612 SUSD3 (probe ILMN_1785570): 8.58E-01
  AveExpr.ST7612 TACC1 (probe ILMN_1770084): 7.64E-01
  AveExpr.ST7612 TANK (probe ILMN_1715069): 8.21E-01
  AveExpr.ST7612 TBC1D7 (probe ILMN_1661622): 7.33E-01
  AveExpr.ST7612 TBC1D16 (probe ILMN_1758457): 7.24E-01
  AveExpr.ST7612 TCEA2 (probe ILMN_1665526): 8.50E-01
  AveExpr.ST7612 TCEAL3 (probe ILMN_1734190): 7.88E-01
  AveExpr.ST7612 TCTN1 (probe ILMN_1685124): 7.81E-01
  AveExpr.ST7612 TESK2 (probe ILMN_1654370): 8.37E-01
  AveExpr.ST7612 TMEM14A (probe ILMN_1785191): 7.29E-01
  AveExpr.ST7612 TMEM49 (probe ILMN_1692754): 8.49E-01
  AveExpr.ST7612 TMEM154 (probe ILMN_2088124): 6.89E-01
  AveExpr.ST7612 TMOD2 (probe ILMN_3250273): 7.57E-01
  AveExpr.ST7612 TPRG1L (probe ILMN_1727479): 7.86E-01
  AveExpr.ST7612 TPST1 (probe ILMN_1651950): 7.51E-01
  AveExpr.ST7612 TPST2 (probe ILMN_1695432): 7.18E-01
  AveExpr.ST7612 TRAFD1 (probe ILMN_1758250): 8.52E-01
  AveExpr.ST7612 UBE2A (probe ILMN_2307455): 7.18E-01
  AveExpr.ST7612 UBTD1 (probe ILMN_1794914): 8.56E-01
  AveExpr.ST7612 UCP2 (probe ILMN_1685625): 7.30E-01
  AveExpr.ST7612 UNC84A (probe ILMN_1772316): 7.21E-01
  AveExpr.ST7612 UPLP (probe ILMN_3236765): 7.46E-01
  AveExpr.ST7612 VASH2 (probe ILMN_1692698): 7.31E-01
  AveExpr.ST7612 VPS8 (probe ILMN_1678268): 7.47E-01
  AveExpr.ST7612 WDR19 (probe ILMN_1655117): 7.77E-01
  AveExpr.ST7612 YPEL5 (probe ILMN_1711069): 6.99E-01
  AveExpr.ST7612 ZDHHC8 (probe ILMN_1789492): 8.85E-01
  AveExpr.ST7612 ZNF775 (probe ILMN_1691702): 7.39E-01
300 nM 8 hrs vs DMSO
  log ratio 1999-08-31 (probe ILMN_1659953): 8.50E-01
  log ratio (probe ILMN_1816244): 7.08E-01
  log ratio (probe ILMN_1827736): 8.76E-01
  log ratio (probe ILMN_1909886): 7.98E-01
  log ratio AACS (ILMN_1698554): 6.24E-01
  log ratio ABCA7 (probe ILMN_1743205): 7.64E-01
  log ratio ABCC4 (ILMN_1788457): -8.19E-01
  log ratio ABCC4 (ILMN_2194009): -8.58E-01
  log ratio ABCE1 (ILMN_2330267): -7.82E-01
  log ratio ACAT2 (ILMN_1708672): -1.01E+00
  log ratio ACOT7 (ILMN_2332250): 6.55E-01
  log ratio ACSL3 (ILMN_2360705): 5.95E-01
  log ratio ACSL5 (ILMN_1705247): -1.24E+00
  log ratio ACSL5 (ILMN_2370882): -9.69E-01
  log ratio ADARB1 (probe ILMN_1679797): 7.60E-01
  log ratio ADD3 (ILMN_1787378): 6.27E-01
  log ratio ADD3 (ILMN_1814526): 6.45E-01
  log ratio ADD3 (ILMN_2311278): 6.14E-01
  log ratio ADIPOR2 (ILMN_2224833): 6.41E-01
  log ratio ADNP2 (ILMN_2080751): 6.66E-01
  log ratio ADRBK1 (ILMN_3307926): -6.13E-01
  log ratio ADSS (ILMN_2092664): -8.15E-01
  log ratio AFMID (ILMN_1707551): 6.36E-01
  log ratio AGTPBP1 (ILMN_1718071): 6.75E-01
  log ratio AKAP8 (ILMN_1741572): -8.28E-01
  log ratio AKAP13 (ILMN_2396956): 6.04E-01
  log ratio ALDH2 (probe ILMN_1793859): 8.03E-01
  log ratio ALDH3A2 (ILMN_1794825): 6.08E-01
  log ratio ALG14 (ILMN_2191822): -6.09E-01
  log ratio ALOX5 (probe ILMN_1680996): 8.46E-01
  log ratio ALS2 (ILMN_1750256): 6.20E-01
  log ratio AMOT (probe ILMN_1792409): 7.65E-01
  log ratio AMZ2 (ILMN_1801606): 6.00E-01
  log ratio ANAPC13 (ILMN_1793894): -1.08E+00
  log ratio ANKLE1 (ILMN_3243457): -8.03E-01
  log ratio ANKMY2 (ILMN_1784292): 5.99E-01
  log ratio ANKRD6 (ILMN_2178587): 6.74E-01
  log ratio ANKRD41 (ILMN_2091590): -9.47E-01
  log ratio ANP32B (ILMN_1684293): -9.66E-01
  log ratio APAF1 (probe ILMN_1659463): 8.78E-01
  log ratio APLP1 (probe ILMN_1763834): 8.17E-01
  log ratio APLP2 (ILMN_1710482): 5.98E-01
  log ratio ARFIP1 (ILMN_2403906): 5.95E-01
  log ratio ARG2 (ILMN_1800898): 6.68E-01
  log ratio ARID2 (ILMN_2182335): -6.15E-01
  log ratio ARL6IP1 (probe ILMN_1708416): 6.93E-01
  log ratio ARSB (ILMN_2242937): -9.59E-01
  log ratio ATG2A (probe ILMN_1756006): 8.92E-01
  log ratio ATP6V0C (ILMN_1789005): 6.37E-01
